In article doi:10.1101/2020.10.07.312850v1 (bioRxiv, 2020):
Non-standard residues stand in square brackets, D forms with d. Residues, ends and D or L forms follow the SMILES beside them. *: point of attachment. Palmitoyl = CCCCCCCCCCCCCCCC(=O)*

Legend:
[1] = chemical penetration enhancers, cited from earlier work; for Solubility: solvent and source not given; for LogP: source not given
[2] = In vitro skin permeation testing, Franz type diffusion cells; format: in vitro ADME; settings: 5% (w/v) in PG, human epidermis, Franz cell, 32 °C, 24 h
[3] = Peptide human skin retention after 24 h; format: in vitro ADME
[4] = test system: melanin; settings: 16 weeks of twice daily treatment; reference not given; cited from earlier work
[5] = test system: mushroom tyrosinase; settings: cited from earlier work
[6] = test system: human tyrosinase; settings: cited from earlier work

## CC12CCC(CC1=O)C2(C)C (centres unmarked) [Camphor]
[1]
  Solubility: 1100 µg/mL
  LogP: 2.1 ± 0.3

## CC1CCC(C(C)C)C(O)C1 (centres unmarked) [Menthol]
[1]
  Solubility: 1500 µg/mL
  LogP: 3.2 ± 0.2

## CCCCCCCC/C=C\CCCCCCCC(=O)O [Oleic acid]
[1]
  Solubility: 2 µg/mL
  LogP: 7.4 ± 0.2

## CCCCCCCCCCCCCCCC(=O)N[C@@H](Cc1ccc(O)cc1)C(=O)N[C@@H](CCCNC(=N)N)C(=O)N[C@@H](CO)C(=O)N[C@@H](CCCNC(=N)N)C(=O)N[C@@H](CCCCN)C(=O)N[C@H](Cc1ccc(O)cc1)C(=O)N[C@@H](CO)C(=O)N[C@@H](CO)C(=O)N[C@@H](Cc1c[nH]c2ccccc12)C(=O)N[C@@H](Cc1ccc(O)cc1)C(N)=O [Palm-peptide] (Palmitoyl-YRSRK[dY]SSWY-NH2)
[2]; menthol
  Effect of CPE on skin permeation: enhancing effect
[2]; oleic acid
  Effect of CPE on skin permeation: inhibitory effects
[3]; MN patch, human epidermis, 24 h
  Percentage of peptide retained inside skin (dose-normalised): < 0.1%
[3]; estimated from skin retention after 24 h
  Highest peptide concentration in skin: 9.0 µg/g

## YRSRKYSSWY [Native peptide, decapeptide-12]
[3]; MN patch, human epidermis, Franz cell, 32 °C, 24 h, HPLC-UV 280 nm, triplicates
  Skin retention of peptide after 24 h: No peptides were detected
[4]
  Efficacy in reducing content of melanin: more than 50%
[5]
  Competitive inhibition compared with hydroquinone: stronger competitive inhibition effect
[6]
  Competitive inhibition compared with hydroquinone: stronger competitive inhibition effect
